Patent US20060148694A1, “Inhibition of stress-induced ligand-dependent egfr activation” (Max-Planck-Gesellschaft zur Foerderung der Wessenschaften. …, priority 2003, published 2006)
One block for each molecule: values may come before it.

Legend:
p38 [1] = test: p38 phosphorylation immunoblot in Cos-7 cells; assay type: cell-based; conditions: AG1478 250 nM 20 min, 0.3 M sorbitol or 200 μM hydrogen peroxide, FIG. 2A
Procedure: FIG. 2. p38 mediates stress-induced EGFR phosphorylation. (A) Time-coure of p38 phosphorylation dependent on EGFR kinase function. Cos-7 cells were pretreated with AG1478 (250 nM) or an equal volume of empty vehicle (DMSO) for 20 min and stimulated with 0.3 M sorbitol or 200 μM hydrogen peroxide for the indicated periods. Cell extracts were immunoblotted with anti-phospho-p38 antibody and reprobing of the same filters with polyclonal anti-p38 antibody. (B) Stress-induced EGFR activation depends on p38 but not ERK activity in Cos-7 cells. Cos-7 cells were pre-treated with PD98059 (50 μM), SB202190 (10 μM) or an equal volume of empty vehicle (DMSO) for 30 min and stimulated with 0.3 M sorbitol and 200 μM hydrogen peroxide for 10 min and the GPCR agonist LPA (10 μM) or EGF (2 ng/mL) for 3 min as positive controls. Cell extracts were assayed for EGFR tyrosine phosphorylation content. (C) Stress-induced EGFR activation depends on p38 activity in TCC-Sup carcinoma cells. […]
FIG. 6. […] Quantitative analysis of ERK phosphorylation from three independent experiments (mean[…]s.d.) using the FUJI LAS1000 imaging system. […] Quantitative analysis of GST-c-JUN phosphorylation from three independent experiments (mean[…]s.d.) using the FUJI LAS1000 imaging system. […]

ERK1/2 [2] = test: ERK1/2 phosphorylation immunoblot in Cos-7 cells (pcDNA3-HA-ERK2); assay type: cell-based; conditions: AG1478 250 nM, BB94 10 μM, Crm197 10 μg/mL 20 min, stimulated 30 min, FIG. 6A
Procedure: (§1) FIG. 6. MAPK activation in response to stress agents and blockade of EGFR, metalloprotease and HB-EGF function. (A) Cos-7 cells transiently transfected with pcDNA3-HA-ERK2, TCC-Sup and NCI-H292 cells were pre-treated with AG1478 (250 nM), BB94 (10 μM), Crm197 (10 μg/mL) or an equal volume of empty vehicle (DMSO) for 20 min and stimulated with 0.3 M sorbitol or 200 μM hydrogen peroxide for 30 min. After cell lysis total lysates were immunoblotted with anti-phospho-ERK antibody, followed by reprobing of the same membranes with polyclonal anti-ERK antibody. Quantitative analysis of ERK phosphorylation from three independent experiments (mean[…]s.d.) using the FUJI LAS1000 imaging system. (B) Cos-7 and NCI-H292 cell were treated as described under (A). After lysis, JNK was immunoprecipitated using an anti-JNK antibody, and JNK activity was assayed using GST-c-JUN fusion protein as a substrate. Phosphorylated GST-c-JUN was visualized by autoradiography and JNK was immunoblotted in parallel using polyclonal JNK antibody. Quantitative analysis of GST-c-JUN phosphorylation from three independent experiments (mean[…]s.d.) using the FUJI LAS1000 imaging system. TCC-Sup cells were treated as described under (A). […]
(§2) Cells were lysed and proteins immunoprecipitated as described before (Daub et al., 1997). […] Phosphotyrosine was detected with the 4G10 monoclonal antibody (UBI, Lake Placid, N.Y.). […]

ERK1/2 [3] = test: ERK1/2 phosphorylation immunoblot in TCC-Sup cells; assay type: cell-based, human; conditions: AG1478 250 nM, BB94 10 μM, Crm197 10 μg/mL, FIG. 6A
Procedure: as §1, §2

ERK1/2 [4] = test: ERK1/2 phosphorylation immunoblot in NCI-H292 cells; assay type: cell-based, human; conditions: AG1478 250 nM, BB94 10 μM, Crm197 10 μg/mL, FIG. 6A
Procedure: as §1, §2

EGFR [5] = test: EGFR tyrosine phosphorylation (IP/immunoblot) in NCI-H292 lung carcinoma cells; assay type: cell-based, human; conditions: for stress-induced EGFR activation upon siRNA transfection: 0.3 M sorbitol or 200 μM hydrogen peroxide 10 min
EGFR [6] = test: EGFR tyrosine phosphorylation (IP/immunoblot) in Cos-7 cells; assay type: cell-based; conditions: for stress-induced EGFR activation: pre-treated 30 min with SB202190 10 μM or PD98059 50 μM, 0.3 M sorbitol or 200 μM hydrogen peroxide 10 min; for EGFR activation by oxidative stress: Src inhibitors, unpublished data; for EGFR activation after sorbitol or hydrogen peroxide upon siRNA transfection: both stress stimuli, 10 min, FIG. 5B
p38 [7] = test: p38 activation immunoblot in TCC-Sup cells after doxorubicin; assay type: cell-based, human; conditions: doxorubicin treatment, FIG. 7A
Procedure: FIG. 7. Doxorubicin-induced cell death of TCC-Sup carcinoma cells. (A) p38 activation in response to doxorubicin treatment. TCC-Sup cells were seeded and treated with doxorubicin for the indicated time points. After cell lysis, p38 activation was assessed by immunoblotting cell extracts with anti-phospho-p38 antibody and reprobing of the same filters with anti-p38 antibody. (B) Blockade of HB-EGF function enhances cell-death in response to doxorubicin. Cells were treated for 72 h with 10 μM doxorubicin and 10 μg/mL Crm197 every 24 h as indicated. After collection of cells in assay buffer, nuclei were stained with PI and analyzed by flow cytometric analysis.
Cells were lysed and proteins immunoprecipitated as described before (Daub et al., 1997). Prior to lysis, cells grown to 80% confluence were treated with inhibitors and agonists as indicated in the figure legends and then lysed for 10 min on ice in buffer containing 50 mM HEPES, pH 7.5, 150 mM NaCl, 1% Triton X-100, 1 mM EDTA, 10% glycerol, 10 mM sodium pyrophosphate, 2 mM sodium orthovanadate, 10 mM sodium fluoride, 1 mM phenylmethylsulfonyl fluoride, and 10 μg/mL aprotinin. Lysates were precleared by centrifugation at 13,000 rpm for 10 min at 4° C. […] Phosphotyrosine was detected with the 4G10 monoclonal antibody (UBI, Lake Placid, N.Y.). […]

[8] = biological target: epidermal growth factor receptor (EGFR) (UniProt P00533); test: cell-based or functional assay
ADAM9 = test: RNA interference, gene expression by RT-PCR in NCI-H292 cells; assay type: cell-based, human; conditions: 2 days after transfection, FIG. 5A
Procedure: (§3) FIG. 5. Effect of siRNAs against different ADAM proteins on stress-induced EGFR phosphorylation. (A) Blockade of ADAM metalloprotease expression by RNA interference (RNAi). NCI-H292 cells were transfected with siRNA against ADAM9, ADAM10 or ADAM15, cultured for 2 days and analyzed for gene expression by RT-PCR as indicated. (B) Cos-7 cells were transfected with siRNAs against ADAM9, -10, -12, -15 and -17, serum-starved for 24 hours, stimulated with 0.3 M sorbitol or 200 μM hydrogen peroxide for 10 min and assayed for EGFR tyrosine phosphorylation content. (C)NCI-H292 cells were treated as described under (B).
(§4) Transfection of 21-nucleotide siRNA duplexes (Dharmacon Research, Lafayette, Colo., USA) for targeting endogenous genes was carried out using Oligofectamine (Invitrogen) for NCI-H292 cells and 4.2 μg siRNA duplex per 6-well plate as previously described (Elbashir et al., 2001). Cos-7 cells were transfected using Lipofectamine 2000 (Invitrogen) according to the manufacturer's protocol. Briefly, 8.4 μg siRNA duplex per 6 cm dish were incubated with 10 μL Lipofectamine 2000 in 1 mL serum-free medium for 20 minutes. The transfection mixture was added to the cell culture medium containing serum and, after 6 h, cells were washed and incubated in medium containing serum overnight. NCI-H292 and Cos-7 cells were serum-starved and assayed 2 d after transfection. Highest efficiencies in silencing target genes were obtained by using mixtures of siRNA duplexes targeting different regions of the gene of interest. Sequences of siRNA used were
(§5) Specific silencing of targeted genes was confirmed by RT-PCR analysis. RNA isolated using RNeasy Mini Kit (Qiagen, Hilden, Germany) was reverse transcribed using AMV Reverse Transcriptase (Roche, Mannheim, Germany). PuReTaq Ready-To-Go PCR Beads (Amersham Biosciences, Piscataway, N.J.) were used for PCR amplification. Primers (Sigma Ark, Steinheim, Germany) were
(§6) PCR products were subjected to electrophoresis on a 2.5% agarose gel and DNA was visualized by ethidium bromide staining.

ADAM10 = test: as above; assay type: cell-based, human; conditions: 2 days after transfection, FIG. 5A
Procedure: as §3, §4, §5, §6

ADAM15 = test: as above; assay type: cell-based, human; conditions: 2 days after transfection, FIG. 5A
Procedure: as §3, §4, §5, §6

Molecule: COc1cc2ncnc(Nc3cccc(Cl)c3)c2cc1OC [AG1478]
p38 phosphorylation in response to stress agents (p38 [1]): did not affect
sorbitol and hydrogen peroxide-induced activation of ERK1/2 (ERK1/2 [2]): blocked
hyperosmolarity and oxidative stress-induced ERK1/2 activation (ERK1/2 [3]): substantially blocked
hyperosmolarity and oxidative stress-induced ERK1/2 activation (ERK1/2 [4]): substantially blocked

Molecule: CNC(=O)[C@H](Cc1ccccc1)NC(=O)[C@H](CC(C)C)[C@H](CSc1cccs1)C(=O)NO [BB94, Batimastat]
inhibition of stress-induced EGFR activation (EGFR [5]; BB94 10 μM 20 min, sorbitol 0.3 M or hydrogen peroxide 200 μM 10 min, printed 'inhibited ... to 50%'): 50%

Molecule: COc1cccc(-c2cc(=O)c3ccccc3o2)c1N [PD98059]
stress-induced EGFR activation (EGFR [6]; FIG. 2B): did not affect

Molecule: Cc1ccc(-c2nn(C(C)(C)C)c3ncnc(N)c23)cc1 [PP1]
EGFR activation by oxidative stress (EGFR [6]): did not achieve specific inhibition

Molecule: CC(C)(C)n1nc(-c2ccc(Cl)cc2)c2c(N)ncnc21 [PP2]
EGFR activation by oxidative stress (EGFR [6]): did not achieve specific inhibition

Molecule: Oc1ccc(-c2nc(-c3ccncc3)c(-c3ccc(F)cc3)[nH]2)cc1 [SB202190]
EGF-induced receptor phosphorylation (EGFR [6]; SB202190 10 μM 30 min, EGF 2 ng/mL 3 min, FIG. 2B): unaffected
LPA-induced receptor phosphorylation (EGFR [6]; SB202190 10 μM 30 min, LPA 10 μM 3 min, FIG. 2B): unaffected
stress-induced EGFR activation (EGFR [6]; FIG. 2B): completely abrogated

Molecule: COc1cccc2c1C(=O)c1c(O)c3c(c(O)c1C2=O)C[C@@](O)(C(=O)CO)C[C@@H]3O[C@H]1C[C@H](N)[C@H](O)[C@H](C)O1 [doxorubicin]
p38 activation (p38 [7]): induces p38 activation

JNK activity in response to oxidative stress (Cos-7 cells; kinase assay with GST-c-JUN) [8]: 50%
Molecule: HB-EGF (from UniProt Q99075 20-208) (ligand)

Molecule: siRNA against ADAM9: mixture of 21-nucleotide siRNA duplexes, SEQ ID NO 1 and 2, targeting ADAM9 (chain 1 AAUCACUGUGGAGACAUUUGCTT; chain 2 AAACUUCCAGUGUGUAGAUGCTT; chemistry not fully specified)
stress-induced EGFR activation upon siRNA transfection (EGFR [5]; FIG. 5C): participate in the stress response
knockdown of target gene expression (ADAM9) (ADAM9): efficient and specific knockdown

Molecule: siRNA against ADAM10: mixture of 21-nucleotide siRNA duplexes, SEQ ID NO 3 and 4, targeting ADAM10 (chain 1 AAUGAAGAGGGACACUUCCCUTT; chain 2 AAGUUGCCUCCUCCUAAACCATT; chemistry not fully specified)
EGFR activation after sorbitol or hydrogen peroxide upon siRNA transfection (EGFR [6]): involved in EGFR activation
knockdown of target gene expression (ADAM10) (ADAM10): efficient and specific knockdown

Molecule: siRNA against ADAM12: mixture of siRNA duplexes, SEQ ID NO 5 and 6, targeting ADAM12 (chain 1 AACCUCGCUGCAAAGAAUGUGTT; chain 2 AAGACCUUGATACGACUGCUGTT; chemistry not fully specified)
EGFR activation upon siRNA transfection, hydrogen peroxide treatment only (EGFR [5]; 200 μM hydrogen peroxide, FIG. 5C): participate in the stress response

Molecule: siRNA against ADAM15: mixture of siRNA duplexes, SEQ ID NO 7 and 8, targeting ADAM15 (chain 1 AACUCCAUCUGUUCUCCUGACTT; chain 2 AAAUUGCCAGCUGCGCCCGUCTT; chemistry not fully specified)
knockdown of target gene expression (ADAM15) (ADAM15): efficient and specific knockdown

B1: siRNA against ADAM17: mixture of siRNA duplexes, SEQ ID NO 9 to 11, targeting ADAM17 (nucleic acid)
chain 1: AAAGUUUGCUUGGCACACCUUTT
chain 2: AAGUAAGGCCCAGGAGUGUUTT
chain 3: AACAUAGAGCCACUUUGGAGATT
modifications: chemistry not fully specified
EGFR activation after sorbitol or hydrogen peroxide upon siRNA transfection (EGFR [6]): involved in EGFR activation
stress-induced EGFR activation upon siRNA transfection (EGFR [5]; FIG. 5C): involved in stress-induced EGFR activation
